US20250270159A1, “1-(CYCLOBUTANEMETHYLIDENE)-2, 4, 5-TRIMETHOXYBENZENE COMPOUND AND PREPARATION METHOD AND USE THEREOF” (CHENGDU XINRUI TAIKANG TECHNOLOGY CO., LTD., priority 2023, published 2025)

Columns and labels:
[1] = test system: neurons in the substantia nigra region of the midbrain of PD mice; experiment: Niehl's staining, number of neuronal Niehl's bodies in substantia nigra of PD mice; assay type: in vivo, C57 mice; details: Group D, CTMB 20 mg/kg ip, after 4 weeks of administration
Description: (§1) The mice were randomly divided into a sham operation group (group S, given a blank emulsion with a volume equal to that of the administered group), a model group (group M, given a blank emulsion with a volume equal to that of the administered group), a CTMB group (20 mg/kg, group D), and a levodopa group (levodopa: benserazide hydrochloride=4:1, 12 mg/kg, group L), each group included 10-12 mice, and all of them were administered intraperitoneally.
After completing the evaluation of motor function after 4 weeks of drug administration, the mice were deeply anesthetized, perfused with 20 mL of saline and 20 mL of 4% paraformaldehyde via the heart, and the brains were rapidly severed and extracted from the head, which were then preserved and fixed in 4% paraformaldehyde for 72 h after removal, and then embedded with paraffin to prepare the slices with a thickness of 4 μm for subsequent pathological and histological studies.
Niehl's staining was used to identify Niehl's bodies in neuronal cells.

[2] = test system: hemorrhagic stroke induced by caudate nucleus collagenase VII injection in rats; experiment: Acute phase of hemorrhagic stroke induced by caudate nucleus collagenase VII injection, short-term neurological deficit score; assay type: in vivo; details: for mNSS score / Garcia score: 24 h after hemorrhagic stroke modeling; for mNSS score: scale 0-18, higher worse; for Garcia score: scale 3-18, lower worse
Description: after 2 h of hemorrhagic stroke, Zea Longa Score was used to determine whether the modeling was successful, and rats with successful modeling were taken and randomly grouped to be administered.
The rats were randomly divided into a sham operation group (Sham group, given a blank emulsion with a volume equal to that of the high-dose CTMB group), a model group (Vehicle group, given a blank emulsion with a volume equal to that of the high-dose CTMB group), a low-dose CTMB group (CTMB-L group, 10 mg/kg), a high-dose CTMB group (CTMB-H group, 20 mg/kg), and an edaravone dexborneol injection concentrated solution group (EDB group, commercially available, 3 mg/kg). Each group included 10-13 rats, which were administered by intraperitoneal injection. It should be noted that in the experiment, the mode of administration for rats was intraperitoneal injection, and a ratio of the effective dose of CTMB, the active ingredient in the emulsion injection, to the unit mass of the human body was within a range of 0.2 mg-4.0 mg/kg, which referred to the ratio of the effective dose of CTMB, the active ingredient in the emulsion injection, to the unit mass of the human body during intravenous infusion, which was extrapolated from effective dose of the rats. Considering the different bioavailability, peak concentration, and peak time of the drug due to different species and different modes of administration, the ration of the effective dose of the active ingredient CTMB in the emulsion injection to unit mass of human body was finally determined to be 0.2 mg-4.0 mg/kg through conversion.
The rats were fasted and dehydrated for 8 h before the procedure, and anesthesia was induced using 4% isoflurane, and 2% isoflurane was given to maintain anesthesia, and the rats were maintained at a temperature of about 37° C. The rats were fixed at the prone position on the stereotaxic apparatus, the head was prepared for skinning, and a longitudinal incision was made in the median sagittal shape of the head to incise the skin and subcutaneous tissues, exposing the anterior chimney and coronal suture. The stereotaxic apparatus was used to locate the right caudate nucleus of the rat with the fontanel as the origin and the right paracentral opening of the midline of 3.0 mm, marked and then holes were punched with the cranial bone drill, the dura was exposed, and the hemorrhage was stopped adequately. The micro-syringe was pre-mounted on the stereotaxic apparatus, and the needle was vertically injected 5.5 mm along the cranial borehole (i.e., the caudate nucleus site). Collagenase VII (1 μL) at a concentration of 0.5 U/μL was injected slowly and uniformly into the brain for 5 min, the needle was stopped for 8 min, and the syringe was slowly pushed out. The cranial defect was closed using sterile bone wax and the scalp incision was sutured. After disinfecting the treatment with iodophor, the rats were returned to the cage. The sham operation group (Sham group) remained unchanged except for the insertion of a needle for saline injection. After awaking from anesthesia, the rats were fed normally. […]
The neural function of the rats was comprehensively evaluated after 24 h of modeling using the modified mNSS score and Garcia score, and mNSS scoring criteria was shown in Table 3 and Garcia scoring criteria was shown in Table 4. […]

[3] = test system: rat model of lithium-pilocarpine-induced epilepsy; experiment: Survival of SE model rats after drug intervention in the acute phase; assay type: in vivo, Sprague Dawley (SD) rats; details: 50 mg/kg ip; Logrank test P<0.05 vs model; FIG. 1
Description: Methylscopolamine bromide, lithium chloride, and pilocarpine were weighed, and experimental drugs were dissolved to working concentrations (100 mg/mL of lithium chloride solution, 1 mg/mLof methylscopolamine bromide solution, and 20 mg/mL of pilocarpine solution) with 0.9% saline. Rats were injected intraperitoneally with lithium chloride (a dose of 127 mg/kg), and 18-20 h later, scopolamine methylbromide (a dose of 1 mg/kg) was injected intraperitoneally. […] Thereafter, an additional dose of 10 mg/kg pilocarpine was injected intraperitoneally every 30 min until the onset of a grade IV or higher status epilepticus (SE)-like seizure without significant intermittent intervals, with a maximum dose of 60 mg/kg.
The rats with successful modeling were randomly divided into three groups, namely a model group, a CTMB group, and a sodium valproate (VPA) group. Administration was carried out after 1 h of SE onset, with a blank emulsion given by intraperitoneal injection in the model group, a CTMB emulsion injection at a dose of 50 mg/kg given by intraperitoneal injection in the CTMB group, and sodium valproate at a dose of 300 mg/kg given by oral gavage in the VPA group. […]
The differences between the survival curves of the rats in each group were analyzed by a Logrank test.

[4] = test system: Malondialdehyde (MDA); experiment: MDA content in striatum of PD mice; assay type: in vivo, C57 mice; details: Group D, CTMB 20 mg/kg ip, after 4 weeks, injured side
Description: as §1
Malondialdehyde (MDA) is a commonly used indicator of membrane lipid peroxidation, reduced glutathione (GSH) is one of the most commonly used non-enzymatic indicators of antioxidant substances, and superoxide dismutase (SOD) is a common indicator of antioxidant enzymes. After completing the evaluation of motor function after 4 weeks of drug administration, the mice were deeply anesthetized and perfused with 20 mL of saline via the heart. The brain was rapidly severed to isolate the striatal region on the injured side (right side), weighed, and placed into a 1.5 mL EP tube, and homogenized at low temperature by adding phosphate-buffered saline (PBS) at the ratio of a weight of animal tissues (g) to a volume of homogenization medium (mL) of 1:9. […]

COc1cc(OC)c(OC)cc1C=C1CCC1 [CTMB, 1-(cyclobutylidenemethyl)-2,4,5-trimethoxybenzene]
Number of Niehl's bodies [1]: 55.5 ± 4.0
toxic side effects associated with administration ([2]; 10 and 20 mg/kg ip, hemorrhagic stroke rats): No toxic side effects
mNSS score ([2]; CTMB-H 20 mg/kg ip): 5.97 ± 1.68^####, *
Garcia score ([2]; CTMB-H 20 mg/kg ip): 10.45 ± 2.49^####, *
mNSS score ([2]; CTMB-L 10 mg/kg ip): 4.54 ± 1.81^###, ****
Garcia score ([2]; CTMB-L 10 mg/kg ip): 12.45 ± 1.89^####, ****
survival rate of the SE model rats [3]: significantly increases the survival rate
MDA [4]: 2.04 ± 0.57 μmol/g protein
